A value given as a limit tells only on which side of the number the result lay.

This test deals with T1, Receptor-type tyrosine-protein kinase FLT3 (Homo sapiens, UniProt P36888).
T1 sequence (P36888 whole entry): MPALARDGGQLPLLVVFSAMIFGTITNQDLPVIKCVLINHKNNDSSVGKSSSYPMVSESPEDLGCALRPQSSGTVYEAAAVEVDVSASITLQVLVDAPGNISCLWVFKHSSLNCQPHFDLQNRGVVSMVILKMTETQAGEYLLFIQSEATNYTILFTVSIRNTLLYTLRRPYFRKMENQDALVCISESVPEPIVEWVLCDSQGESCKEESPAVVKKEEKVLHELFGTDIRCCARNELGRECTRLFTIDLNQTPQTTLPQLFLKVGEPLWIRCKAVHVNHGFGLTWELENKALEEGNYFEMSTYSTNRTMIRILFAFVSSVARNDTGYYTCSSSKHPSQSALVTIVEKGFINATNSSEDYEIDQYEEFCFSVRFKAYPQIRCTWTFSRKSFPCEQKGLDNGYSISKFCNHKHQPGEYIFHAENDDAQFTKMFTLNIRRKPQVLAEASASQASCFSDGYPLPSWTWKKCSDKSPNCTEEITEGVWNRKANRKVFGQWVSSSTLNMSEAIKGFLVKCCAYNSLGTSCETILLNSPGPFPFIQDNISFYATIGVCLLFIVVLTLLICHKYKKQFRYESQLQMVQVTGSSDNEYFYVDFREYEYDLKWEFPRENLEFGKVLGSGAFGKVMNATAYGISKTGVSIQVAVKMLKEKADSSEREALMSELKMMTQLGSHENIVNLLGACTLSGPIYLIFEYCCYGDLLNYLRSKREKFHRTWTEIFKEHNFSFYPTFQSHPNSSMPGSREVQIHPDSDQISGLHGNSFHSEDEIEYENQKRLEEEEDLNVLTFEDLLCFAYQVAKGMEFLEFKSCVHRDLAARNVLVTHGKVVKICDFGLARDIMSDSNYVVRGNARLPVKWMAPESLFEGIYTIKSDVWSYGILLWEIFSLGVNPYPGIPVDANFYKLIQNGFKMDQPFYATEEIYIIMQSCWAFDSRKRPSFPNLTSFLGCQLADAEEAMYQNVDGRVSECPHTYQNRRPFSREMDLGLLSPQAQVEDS
The test can be described thus: Inhibition of human N-terminal GST-tagged FLT3 cytoplasmic domain (564 to 993 residues) expressed in baculovirus expression system using 5-FAM-peptide 2 as substrate after 2 hrs by electrophoretic mobility shift assay in presence of ATP. A general note: In EMSA bound probe runs differently from free probe, usually more slowly.
The IC50 is the point on the concentration scale where inhibition reaches its midpoint. Turning to `COC(=O)c1ccccc1NC(=O)c1n[nH]c2ccccc12`, the half-inhibitory concentration (IC50) is above 2000 nM. `CN(C(=O)c1n[nH]c2ccccc12)c1ccccc1`: the IC50 is above 2000 nM. Turning to `O=C(Nc1ccc(N2CCN(c3ccccc3)CC2)cc1)c1n[nH]c2ccccc12`, the IC50 is above 2000 nM. In the case of `O=C(Nc1ccccc1)c1c[nH]c2ccccc12` it was above 2000 nM. Turning to `Cn1nc(C(=O)Nc2ccccc2)c2ccccc21`, the IC50 is above 2000 nM. To `Cc1ccccc1NC(=O)c1n[nH]c2ccccc12` belongs above 2000 nM. Regarding `COc1ccc(NC(=O)c2n[nH]c3ccccc23)cc1`, the concentration for half-maximal inhibition (IC50) was 352 nM. As for `COC(=O)c1cccc(NC(=O)c2n[nH]c3ccccc23)c1`, the IC50 is above 2000 nM. For `COc1ccccc1NC(=O)c1n[nH]c2ccccc12`, the concentration for half-maximal inhibition (IC50) is above 2000 nM.

The values are drawn from ChEMBL document CHEMBL3792292, “Development of a potent and selective FLT3 kinase inhibitor by systematic expansion of a non-selective fragment-screening hit” (Bioorg Med Chem Lett, 2016).
